EP3108883A1, “THERAPEUTIC USES OF NON-PEPTIDE INHIBITORS OF THE CALCINEURIN - NFAT SIGNALLING PATHWAY” (Fundació Institut de Recerca Biomèdica de Bellvitge, priority 2015, dated 2016)

Molecular target: CN (Homo sapiens, UniProt Q08209)
Assay: In vitro CN phosphatase assay with pNPP as substrate
Assay type: biochemical
Conditions: ZnCl2 control at 50 µM
Procedure: CN activity towards the pNPP substrate was measured as described (McAvoy, et al., in Current Protocols in Molecular Biology. (John Wiley & Sons, Inc., 2001), vol. 92, chap. 18, pp. 18). The CN phosphatase assay kit (ENZO Life Sciences, Farmingdale, NY) was used to assess the dephosphorylation of phosphoRII peptide by CN (Mulero et al., 2009, supra.). Potential immunosuppressant CN inhibitors should compete with NFATc for binding, without blocking the general phosphatase activity of CN. As an initial screening test, the phosphatase activity of CN was analyzed using the small molecule p-nitrophenil phosphate (pNPP) as substrate (see Material and Methods). […] The ability of compounds 1-32 in inhibiting CN-NFATc signaling was evaluated in human HEK 293T cells using a luciferase gene reporter assay that includes the NFATc-dependent IL2 promoter (3[…]). After 24 hours of treatment, 50 μM of compounds 6, 9, 17, 19, 23, 25 and 29 inhibit more than 75% NFATc activity, while compounds 1, 2, 4, 8, 10, 14, and 24 inhibit 50-75% NFATc activity (Fig. 2B).

[Cl-].[Cl-].[Zn+2] [ZnCl2]
CN phosphatase activity towards pNPP: strongly inhibits enzymatic activity
